Experimental data: PubChem BioAssay AID330 (DTP/NCI, 2004)
Where “and” joins values, the source holds several entries; their conditions need not be identical. Identical values can stand only once. Inconclusive results and toxic doses are left out. Rule for the calls: active = survival T/C of 150% or more; inactive = T/C below 125% in these data.

Test system: P388 leukemia ip, CD2F1 mice, survival T/C
Experiment: NCI In Vivo Anticancer Drug Screen. Data for tumor model P388 Leukemia (intraperitoneal) in CD2F1 (CDF1) mice
Details: endpoint: median survival time, higher = longer survival
How it was run: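 Mice carrying the transplanted tumor received test compound or vehicle. Survival was recorded in each group, and the value is the treated-group measurement divided by that of the vehicle-treated control group.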

[1] = dose: 60.0 mg/kg/injection, schedule: Q01DX005 (ip), vehicle: saline with Tween-80
[2] = dose: 120.0 mg/kg/injection, schedule: Q01DX005 (ip), vehicle: saline with Tween-80
[3] = dose: 240.0 mg/kg/injection, schedule: Q01DX005 (ip), vehicle: saline with Tween-80
[4] = dose: 50.0 mg/kg/injection, schedule: Q01DX009 (ip), vehicle: saline with Tween-80
[5] = dose: 100.0 mg/kg/injection, schedule: Q01DX009 (ip), vehicle: saline with Tween-80
[6] = dose: 200.0 mg/kg/injection, schedule: Q01DX009 (ip), vehicle: saline with Tween-80
[7] = dose: 100.0 mg/kg/injection, schedule: Q01DX001 (ip), vehicle: Klucel (hydroxypropylcellulose) (HPC)
[8] = dose: 200.0 mg/kg/injection, schedule: Q01DX001 (ip), vehicle: Klucel (hydroxypropylcellulose) (HPC)
[9] = dose: 50.0 mg/kg/injection, schedule: Q01DX005 (ip), vehicle: saline with Tween-80
[10] = dose: 100.0 mg/kg/injection, schedule: Q01DX005 (ip), vehicle: saline with Tween-80
[11] = dose: 200.0 mg/kg/injection, schedule: Q01DX005 (ip), vehicle: saline with Tween-80
[12] = dose: 100.0 mg/kg/injection, schedule: Q01DX001 (ip), vehicle: saline with Tween-80
[13] = dose: 60.0 mg/kg/injection, schedule: Q01DX005 (ip), vehicle: Klucel (hydroxypropylcellulose) (HPC)
[14] = dose: 120.0 mg/kg/injection, schedule: Q01DX005 (ip), vehicle: Klucel (hydroxypropylcellulose) (HPC)
[15] = dose: 240.0 mg/kg/injection, schedule: Q01DX005 (ip), vehicle: Klucel (hydroxypropylcellulose) (HPC)
[16] = dose: 100.0 mg/kg/injection, schedule: Q04DX003 (ip), vehicle: saline
[17] = dose: 50.0 mg/kg/injection, schedule: Q01DX009 (ip), vehicle: Klucel (hydroxypropylcellulose) (HPC)
[18] = dose: 100.0 mg/kg/injection, schedule: Q01DX009 (ip), vehicle: Klucel (hydroxypropylcellulose) (HPC)
[19] = dose: 200.0 mg/kg/injection, schedule: Q01DX009 (ip), vehicle: Klucel (hydroxypropylcellulose) (HPC)

Measured: T/C

Cc1cccc(-n2c(=O)c3[nH]c4ccccc4sc=3c2=O)c1
inactive: [1] 104 % of control | [2] 107 % of control | [3] 92 % of control

O=C(O)c1cc(OCc2ccccc2)cc(OCc2ccccc2)c1
inactive: [1] 96 % of control | [2] 102 % of control | [3] 106 % of control

OC(Nc1ncccn1)C(Cl)(Cl)Cl (stereo not drawn)
inactive: [4] 104 % of control | [5] 100 % of control | [6] 100 % of control

O=S(=O)(/N=C1C=C/C(=N\S(=O)(=O)c2ccccc2)C2C/1C2(c1ccccc1)c1ccccc1)c1ccccc1 (stereo not drawn)
inactive: dose: 50.0 mg/kg/injection, schedule: Q01DX001 (ip), vehicle: Klucel (hydroxypropylcellulose) (HPC) 98 % of control | [7] 97 % of control | [8] 99 % of control

CC1=C(C#N)C2(N)OC1(C)C1C(=O)C=CC(=O)C12 (stereo not drawn)
inactive: [9] 110 % of control | [10] 107 % of control | [11] 108 % of control

COP(=O)(CC(=O)NCc1cc(C(C)(C)C)c(O)c(C(C)(C)C)c1)OC
inactive: [4] 110 % of control | [5] 103 % of control | [6] 100 % of control

CCOC(=O)c1ccc(NC(=S)NC(=O)c2cccc(Br)c2)cc1
inactive: [1] 95 % of control | [2] 95 % of control | [3] 90 % of control

CCOC(=O)/C(C#N)=C(\CC)c1cc(Cl)cc(Cl)c1O
inactive: [1] 100 % of control | [2] 90 % of control | [3] 96 % of control

CC(=O)/C(C(=N)c1nc(C)c(C(=O)c2ccccc2)c(C(N)=O)n1)=C(/O)c1ccccc1
inactive: [7] 90 % of control | [8] 88 % of control | dose: 400.0 mg/kg/injection, schedule: Q01DX001 (ip), vehicle: Klucel (hydroxypropylcellulose) (HPC) 89 % of control

O=C(NC(=S)c1cccs1)NS(=O)(=O)c1ccc(Cl)cc1
inactive: dose: 25.0 mg/kg/injection, schedule: Q01DX001 (ip), vehicle: saline with Tween-80 98 % of control | dose: 50.0 mg/kg/injection, schedule: Q01DX001 (ip), vehicle: saline with Tween-80 98 % of control | [12] 98 % of control

Nc1ccn(C2OC(COP(=O)(O)O)C(O)C2O)c(=O)n1 (stereo not drawn) (tested in a mixture with another compound)
inactive: [13] 108 % of control | [14] 99 % of control | [15] 99 % of control

COc1ccc(C(=O)N2N=C(C)C(C)(C)C2(C)O)cc1 (stereo not drawn)
inactive: [13] 104 % of control | [14] 109 % of control | [15] 104 % of control

[Cl][Ru]([Cl])([Cl])([Cl])([Cl])[Cl]
inactive: dose: 6.25 mg/kg/injection, schedule: Q04DX003 (ip), vehicle: saline 117 % of control and 123 % of control | dose: 12.5 mg/kg/injection, schedule: Q04DX003 (ip), vehicle: saline 117 % of control and 123 % of control | dose: 25.0 mg/kg/injection, schedule: Q04DX003 (ip), vehicle: saline 117 % of control | dose: 50.0 mg/kg/injection, schedule: Q04DX003 (ip), vehicle: saline 123 % of control | [16] 111 % of control

c1ccc2c(c1)Cc1cc3ccccc3nc1-2
inactive: dose: 25.0 mg/kg/injection, schedule: Q01DX005 (ip), vehicle: Klucel (hydroxypropylcellulose) (HPC) 94 % of control | dose: 25.0 mg/kg/injection, schedule: Q01DX009 (ip), vehicle: Klucel (hydroxypropylcellulose) (HPC) 94 % of control | dose: 50.0 mg/kg/injection, schedule: Q01DX005 (ip), vehicle: Klucel (hydroxypropylcellulose) (HPC) 100 % of control | [17] 91 % of control | dose: 100.0 mg/kg/injection, schedule: Q01DX005 (ip), vehicle: Klucel (hydroxypropylcellulose) (HPC) 100 % of control | [18] 106 % of control | dose: 200.0 mg/kg/injection, schedule: Q01DX005 (ip), vehicle: Klucel (hydroxypropylcellulose) (HPC) 97 % of control | [19] 100 % of control

O=C/C(Cl)=C(/Cl)C(=O)O
inactive: dose: 2.5 mg/kg/injection, schedule: Q01DX009 (ip), vehicle: saline with Tween-80 110 % of control and 123 % of control | dose: 5.0 mg/kg/injection, schedule: Q01DX009 (ip), vehicle: saline with Tween-80 117 % of control and 121 % of control | dose: 10.0 mg/kg/injection, schedule: Q01DX009 (ip), vehicle: saline with Tween-80 120 % of control and 121 % of control

O=C(Nc1ccc([N+](=O)[O-])cc1C(Sc1ccccc1)c1ccccc1)c1ccc([N+](=O)[O-])cc1 (stereo not drawn)
inactive: [12] 94 % of control | dose: 200.0 mg/kg/injection, schedule: Q01DX001 (ip), vehicle: saline with Tween-80 87 % of control

CC1(CO)CSC(Nc2ccc(F)cc2)=N1 (stereo not drawn)
inactive: [4] 104 % of control | [5] 98 % of control | [6] 104 % of control

COC(OC)C1(O)CC(C(C)C)OC(=O)N1 (stereo not drawn)
inactive: [16] 100 % of control | dose: 200.0 mg/kg/injection, schedule: Q04DX003 (ip), vehicle: saline 108 % of control | dose: 400.0 mg/kg/injection, schedule: Q04DX003 (ip), vehicle: saline 100 % of control

O=C(O)CC12CC3CC(CC(C3)C1)C2
inactive: [17] 102 % of control | [18] 103 % of control | [19] 102 % of control

CCCCCCCCCCCC(=O)NCCc1ccc(O)c(O)c1
inactive: dose: 25.0 mg/kg/injection, schedule: Q04DX003 (ip), vehicle: Klucel (hydroxypropylcellulose) (HPC) 113 % of control | dose: 50.0 mg/kg/injection, schedule: Q04DX003 (ip), vehicle: Klucel (hydroxypropylcellulose) (HPC) 115 % of control | dose: 100.0 mg/kg/injection, schedule: Q04DX003 (ip), vehicle: Klucel (hydroxypropylcellulose) (HPC) 119 % of control and 120 % of control | dose: 200.0 mg/kg/injection, schedule: Q04DX003 (ip), vehicle: Klucel (hydroxypropylcellulose) (HPC) 113 % of control and 120 % of control | dose: 400.0 mg/kg/injection, schedule: Q04DX003 (ip), vehicle: Klucel (hydroxypropylcellulose) (HPC) 89 % of control

CCN(CC)Cc1cc(C)c(O)c(N=Nc2ccc3c(c2)c2ccccc2n3CC)c1C
inactive: [4] 102 % of control | [5] 110 % of control | [6] 101 % of control

C=CCOc1cc2c(cc1C(C)c1cc(OC)c(OC)c(OC)c1)OCO2 (stereo not drawn)
inactive: [9] 101 % of control | [10] 99 % of control | [11] 108 % of control

C=C1C[C@H](O)[C@H]2C(C[Se]c3ccccc3)C(=O)O[C@@H]2[C@H]2[C@H](C)C(=O)C[C@@H]12 (stereo partly drawn)
inactive: [1] 97 % of control | [2] 95 % of control | [3] 92 % of control

CCO/C([O-])=C(/C(=N/S(=O)(=O)c1ccc(C)cc1)SC)[n+]1ccccc1
inactive: dose: 25.0 mg/kg/injection, schedule: Q04DX002 (ip), vehicle: saline with Tween-80 100 % of control | dose: 50.0 mg/kg/injection, schedule: Q04DX002 (ip), vehicle: saline with Tween-80 99 % of control | dose: 100.0 mg/kg/injection, schedule: Q04DX002 (ip), vehicle: saline with Tween-80 99 % of control

CCOC(=O)C(C)(Br)C(=O)OCC
inactive: dose: 25.0 mg/kg/injection, schedule: Q01DX009 (ip), vehicle: saline with Tween-80 118 % of control | [4] 109 % of control | [5] 109 % of control
